Results taken from article PMC10683025, “Discovery of a Hydroxylamine-Based Brain-Penetrant EGFR Inhibitor for Metastatic Non-Small-Cell Lung Cancer” (Journal of Medicinal Chemistry, 2023).
Converted amounts (≈) assume the structure as drawn. Like-named read-outs stand apart in the source and are kept apart here.

Tests used:
[1] = molecular target: T1, EGFRwt (Homo sapiens, UniProt P00533); assay: KINOMEScan KdELECT Kd determination; type: binding; details: wt; read-out: EGFR Kd
T1 construct: purchased Eurofins DiscoverX (contract assay)
Protocol: (§3) In vitro kinase activity (inhibitor binding constants (Kd) and biochemical inhibition (IC50’s)) were assessed by Eurofins DiscoverX (Kd determinations) and Eurofins Cerep (biochemical IC50 determinations).

[2] = molecular target: T2, EGFR del E746_A750 (Homo sapiens, UniProt P00533, DEL746-750); assay: KINOMEScan KdELECT Kd determination; type: binding
T2 construct: purchased Eurofins DiscoverX (contract assay)
Protocol: as §3

[3] = tested on: HCC827 (EGFR mutation = exon19del); assay: CellTiter-Glo cell viability assay; type: cell-based, human; details: Homo sapiens, HCC827; 72 h, unadjusted for FBS
Protocol: The NCI-H3255 cell line was obtained from CoBioer. […] NCI-H3255 cells were cultured in BEGM (Lonza) with 10% FBS. […] All cells were cultured in a humidified incubator with 5% CO2 at 37 °C.
Viability assays using A431, HCC827, NCI-H1975, NCI-H3255, Ba/F3 EGFR-del E746_A750/C797S, Ba/F3 EGFR-L858R/C797S, AU565, SK-BR-3, and ZR-75-30 cells were performed at Crown BioScience.

[4] = Solubility assay; type: physicochemical; details: buffer; for solubility at 2 h: read-out: Aq. Solubility
Protocol: Solubility was determined by Pharmaron, Inc. and each compound was assessed in duplicate (n = 2) by adding 15 μL of compound stock solution (10 mM in DMSO) into a 96-well plate along with 485 μL of buffer followed by shaking at 25 °C, 1100 rpm for 2 h. Wells were filtered, and samples (5 μL) were taken followed by dilution with an equal volume of DMSO (5 μL) and 490 μL of aqueous solution. Samples were analyzed by LC-MS/MS.

[5] = Metabolic stability in liver microsomes; type: in vitro ADME, human; details: for Remaining Percentage: human LM
Protocol: (§4) Microsome stability was assessed in duplicate (n = 2) in the presence and absence of nicotinamide adenine dinucleotide phosphate (NADPH) with liver microsomes (0.5 mg/mL) from human (BD Gentest) and Sprague-Dawley rats (BD Gentest). Compounds were incubated in liver microsomes at 1 μM and samples (30 μL) were taken at 0.5, 15, 30, 45, and 60 min time points for analysis by LC-MS/MS. Hepatocyte stability was assessed in duplicate (n = 2) at a working cell density of 0.5 × 10^6 cells/mL with hepatocytes from human (BiolVT), Sprague-Dawley rat (BiolVT), cynomolgus monkey (RILD) or beagle dog (BiolVT). […] The in vitro half-life and intrinsic clearances were determined as previously described.[76]
(§5) In vitro half-life (in vitro t1/2) was determined from the slope value in [drawing 1] where k was determined by linear regression of the natural logarithm of the remaining percentage of the parent drug vs the incubation time curve.

[6] = Metabolic stability in hepatocytes; type: in vitro ADME, human; details: for Remaining Percentages: human hepatocytes
Protocol: as §4, §5

[7] = Metabolic stability in hepatocytes; type: in vitro ADME, Sprague-Dawley rat; details: for Remaining Percentages: rat hepatocytes
Protocol: as §4, §5

[8] = Plasma stability; type: in vitro ADME, human
Outline: (§1)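 Compound at 5 μM incubated in human and Sprague-Dawley rat plasma, duplicates; samples at 0, 15, 30, 60 and 120 min analysed by LC-MS/MS. Percent remaining at each time from compound/control peak area ratio relative to the 0 min ratio.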

[9] = Plasma stability; type: in vitro ADME, Sprague-Dawley rat
Outline: as §1

[10] = Caco-2 permeability; type: in vitro ADME; details: human; for recovery at 2 h, 5 μM: Caco-2, Caco-2
Protocol: (§6) A 96-well HTS Transwell plate (Corning) was used for Caco-2 and MDCKII-MDR1 cell seeding. […] Plates were incubated at 37 °C for 2 h, and samples (50 μL) were taken at the beginning and end of the incubation in both the donor and acceptor wells with the assay run in duplicate (n = 2). Samples were analyzed by LC-MS/MS.
(§7) The efflux ratio was determined by using the following equation: [drawing 4] where Papp (B–A) indicates the apparent permeability in the basolateral to apical direction and Papp (A–B) indicates the apparent permeability in the apical to basolateral direction.

[11] = MDCKII-MDR1 permeability; type: in vitro ADME, canine; details: dog, MDCK-MDR1, MDCKII-MDR1
Protocol: as §6, §7

[12] = tested on: MDR1; assay: MDCKII-MDR1 permeability; type: in vitro ADME, canine; details: dog, MDCK-MDR1
Protocol: as §6, §7

[13] = Plasma protein binding by equilibrium dialysis; type: in vitro ADME
Protocol: (§2) Plasma protein binding and brain tissue binding were determined by Pharmaron, Inc. using the equilibrium dialysis method. […] Following incubation, the samples were analyzed by LC-MS/MS and the concentrations of the compounds were determined in the buffer and plasma solution chambers.

[14] = Brain tissue binding by equilibrium dialysis; type: in vitro ADME; details: rat
Protocol: as §2

[15] = molecular target: T3, hERG (Homo sapiens, UniProt Q12809); assay: hERG manual patch clamp in HEK293; type: cell-based
T3 construct: host or cells: HEK293

[16] = molecular target: T4, EGFRL858R (Homo sapiens, UniProt P00533, L858R); assay: KINOMEScan KdELECT Kd determination; type: binding; parameters: purchased Eurofins DiscoverX (contract assay); details: L858R
Protocol: as §3

[17] = molecular target: T4, EGFRL858R; assay: KinaseProfiler enzymatic radiometric assay; type: biochemical; parameters: purchased Eurofins Cerep (KinaseProfiler, contract assay); details: ATP 10 μM, read-out: EGFR IC50
Protocol: as §3

[18] = Sprague-Dawley, rat, rat plasma

T4 sequence (P00533 25-1210 L858R): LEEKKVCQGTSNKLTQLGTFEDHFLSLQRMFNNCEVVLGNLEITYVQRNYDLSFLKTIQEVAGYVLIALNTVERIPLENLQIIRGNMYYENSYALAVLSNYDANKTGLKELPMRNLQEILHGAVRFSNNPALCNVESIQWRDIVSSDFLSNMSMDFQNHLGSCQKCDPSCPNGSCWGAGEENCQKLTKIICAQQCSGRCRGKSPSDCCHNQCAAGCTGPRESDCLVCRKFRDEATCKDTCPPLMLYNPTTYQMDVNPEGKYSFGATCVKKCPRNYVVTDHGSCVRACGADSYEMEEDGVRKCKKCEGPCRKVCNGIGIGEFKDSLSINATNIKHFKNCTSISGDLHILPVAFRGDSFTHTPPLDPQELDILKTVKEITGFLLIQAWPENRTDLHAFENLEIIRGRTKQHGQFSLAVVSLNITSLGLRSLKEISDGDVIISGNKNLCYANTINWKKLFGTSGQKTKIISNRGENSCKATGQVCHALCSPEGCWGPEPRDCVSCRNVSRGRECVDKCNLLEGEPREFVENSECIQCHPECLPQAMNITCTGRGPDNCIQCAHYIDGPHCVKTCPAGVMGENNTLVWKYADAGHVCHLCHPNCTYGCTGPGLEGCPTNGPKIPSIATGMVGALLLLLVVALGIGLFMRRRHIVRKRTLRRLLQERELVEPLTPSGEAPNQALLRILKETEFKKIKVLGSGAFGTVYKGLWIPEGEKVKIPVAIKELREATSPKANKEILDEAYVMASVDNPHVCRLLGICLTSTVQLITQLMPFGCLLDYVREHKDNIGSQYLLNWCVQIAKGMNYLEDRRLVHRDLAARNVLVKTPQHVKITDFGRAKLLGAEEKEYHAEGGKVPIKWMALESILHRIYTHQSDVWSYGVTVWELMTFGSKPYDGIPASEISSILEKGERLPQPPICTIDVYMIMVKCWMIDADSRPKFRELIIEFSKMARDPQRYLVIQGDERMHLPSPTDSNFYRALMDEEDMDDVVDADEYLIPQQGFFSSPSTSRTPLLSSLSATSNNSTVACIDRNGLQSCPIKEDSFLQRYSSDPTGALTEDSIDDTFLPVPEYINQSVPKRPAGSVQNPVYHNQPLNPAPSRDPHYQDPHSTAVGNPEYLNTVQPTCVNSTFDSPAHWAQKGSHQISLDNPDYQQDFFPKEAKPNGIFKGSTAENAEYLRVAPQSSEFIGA
T3 sequence (Q12809 whole entry): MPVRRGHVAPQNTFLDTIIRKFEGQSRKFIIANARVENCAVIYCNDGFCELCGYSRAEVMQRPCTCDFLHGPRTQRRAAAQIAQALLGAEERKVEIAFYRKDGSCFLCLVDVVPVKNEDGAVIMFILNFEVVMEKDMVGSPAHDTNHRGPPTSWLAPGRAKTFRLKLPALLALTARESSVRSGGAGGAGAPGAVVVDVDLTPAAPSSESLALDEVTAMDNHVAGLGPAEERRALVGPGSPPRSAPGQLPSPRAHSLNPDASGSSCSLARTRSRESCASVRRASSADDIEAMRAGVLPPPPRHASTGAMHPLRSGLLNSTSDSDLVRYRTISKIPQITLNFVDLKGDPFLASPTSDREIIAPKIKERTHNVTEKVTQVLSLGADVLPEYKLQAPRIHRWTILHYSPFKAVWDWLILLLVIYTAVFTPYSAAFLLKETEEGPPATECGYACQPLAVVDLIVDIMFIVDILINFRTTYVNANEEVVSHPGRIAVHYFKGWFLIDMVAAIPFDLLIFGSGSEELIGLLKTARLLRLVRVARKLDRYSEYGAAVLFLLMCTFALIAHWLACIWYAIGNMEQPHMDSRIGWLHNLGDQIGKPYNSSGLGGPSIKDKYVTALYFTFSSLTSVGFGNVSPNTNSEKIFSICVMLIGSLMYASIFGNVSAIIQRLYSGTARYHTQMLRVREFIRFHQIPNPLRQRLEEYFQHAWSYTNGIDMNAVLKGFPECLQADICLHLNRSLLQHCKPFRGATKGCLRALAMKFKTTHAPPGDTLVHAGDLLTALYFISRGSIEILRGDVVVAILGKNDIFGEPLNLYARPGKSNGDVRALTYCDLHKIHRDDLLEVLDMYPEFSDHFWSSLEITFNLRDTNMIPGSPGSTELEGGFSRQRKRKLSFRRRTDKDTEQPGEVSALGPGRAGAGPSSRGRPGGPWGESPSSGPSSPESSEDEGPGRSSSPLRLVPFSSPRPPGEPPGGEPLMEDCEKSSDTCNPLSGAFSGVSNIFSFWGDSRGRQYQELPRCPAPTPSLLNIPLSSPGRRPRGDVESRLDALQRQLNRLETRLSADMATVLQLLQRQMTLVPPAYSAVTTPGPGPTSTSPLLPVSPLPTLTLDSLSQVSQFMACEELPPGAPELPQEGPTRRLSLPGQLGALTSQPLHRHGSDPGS
T2 sequence (P00533 with tags, fused parts or gaps DEL746-750): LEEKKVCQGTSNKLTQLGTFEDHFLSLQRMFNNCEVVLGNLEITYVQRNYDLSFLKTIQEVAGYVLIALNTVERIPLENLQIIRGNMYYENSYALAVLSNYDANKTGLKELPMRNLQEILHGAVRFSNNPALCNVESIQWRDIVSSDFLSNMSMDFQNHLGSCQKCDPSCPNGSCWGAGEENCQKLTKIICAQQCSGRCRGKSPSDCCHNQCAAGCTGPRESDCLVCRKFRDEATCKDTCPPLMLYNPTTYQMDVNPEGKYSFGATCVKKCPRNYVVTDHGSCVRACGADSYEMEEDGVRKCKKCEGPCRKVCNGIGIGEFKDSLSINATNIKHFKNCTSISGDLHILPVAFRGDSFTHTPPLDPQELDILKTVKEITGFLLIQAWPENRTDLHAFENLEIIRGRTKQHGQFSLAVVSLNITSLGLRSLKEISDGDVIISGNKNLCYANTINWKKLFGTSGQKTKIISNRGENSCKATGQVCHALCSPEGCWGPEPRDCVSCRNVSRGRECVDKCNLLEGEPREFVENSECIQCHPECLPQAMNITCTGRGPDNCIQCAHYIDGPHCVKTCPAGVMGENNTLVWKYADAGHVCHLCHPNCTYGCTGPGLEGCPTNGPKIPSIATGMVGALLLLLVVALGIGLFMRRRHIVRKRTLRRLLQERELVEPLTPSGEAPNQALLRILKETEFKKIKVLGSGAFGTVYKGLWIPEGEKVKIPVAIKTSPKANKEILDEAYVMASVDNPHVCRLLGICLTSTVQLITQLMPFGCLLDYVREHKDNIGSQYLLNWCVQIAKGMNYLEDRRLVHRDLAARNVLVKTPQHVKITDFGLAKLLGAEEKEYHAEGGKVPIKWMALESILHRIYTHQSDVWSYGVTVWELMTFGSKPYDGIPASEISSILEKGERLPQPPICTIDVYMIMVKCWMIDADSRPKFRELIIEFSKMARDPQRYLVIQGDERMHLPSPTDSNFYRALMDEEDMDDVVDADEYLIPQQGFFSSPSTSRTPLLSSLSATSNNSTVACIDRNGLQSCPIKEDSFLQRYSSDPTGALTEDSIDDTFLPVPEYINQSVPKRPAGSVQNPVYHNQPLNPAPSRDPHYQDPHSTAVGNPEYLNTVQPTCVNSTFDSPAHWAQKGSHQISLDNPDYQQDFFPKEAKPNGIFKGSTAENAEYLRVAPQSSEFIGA
T1 sequence (P00533 25-1210): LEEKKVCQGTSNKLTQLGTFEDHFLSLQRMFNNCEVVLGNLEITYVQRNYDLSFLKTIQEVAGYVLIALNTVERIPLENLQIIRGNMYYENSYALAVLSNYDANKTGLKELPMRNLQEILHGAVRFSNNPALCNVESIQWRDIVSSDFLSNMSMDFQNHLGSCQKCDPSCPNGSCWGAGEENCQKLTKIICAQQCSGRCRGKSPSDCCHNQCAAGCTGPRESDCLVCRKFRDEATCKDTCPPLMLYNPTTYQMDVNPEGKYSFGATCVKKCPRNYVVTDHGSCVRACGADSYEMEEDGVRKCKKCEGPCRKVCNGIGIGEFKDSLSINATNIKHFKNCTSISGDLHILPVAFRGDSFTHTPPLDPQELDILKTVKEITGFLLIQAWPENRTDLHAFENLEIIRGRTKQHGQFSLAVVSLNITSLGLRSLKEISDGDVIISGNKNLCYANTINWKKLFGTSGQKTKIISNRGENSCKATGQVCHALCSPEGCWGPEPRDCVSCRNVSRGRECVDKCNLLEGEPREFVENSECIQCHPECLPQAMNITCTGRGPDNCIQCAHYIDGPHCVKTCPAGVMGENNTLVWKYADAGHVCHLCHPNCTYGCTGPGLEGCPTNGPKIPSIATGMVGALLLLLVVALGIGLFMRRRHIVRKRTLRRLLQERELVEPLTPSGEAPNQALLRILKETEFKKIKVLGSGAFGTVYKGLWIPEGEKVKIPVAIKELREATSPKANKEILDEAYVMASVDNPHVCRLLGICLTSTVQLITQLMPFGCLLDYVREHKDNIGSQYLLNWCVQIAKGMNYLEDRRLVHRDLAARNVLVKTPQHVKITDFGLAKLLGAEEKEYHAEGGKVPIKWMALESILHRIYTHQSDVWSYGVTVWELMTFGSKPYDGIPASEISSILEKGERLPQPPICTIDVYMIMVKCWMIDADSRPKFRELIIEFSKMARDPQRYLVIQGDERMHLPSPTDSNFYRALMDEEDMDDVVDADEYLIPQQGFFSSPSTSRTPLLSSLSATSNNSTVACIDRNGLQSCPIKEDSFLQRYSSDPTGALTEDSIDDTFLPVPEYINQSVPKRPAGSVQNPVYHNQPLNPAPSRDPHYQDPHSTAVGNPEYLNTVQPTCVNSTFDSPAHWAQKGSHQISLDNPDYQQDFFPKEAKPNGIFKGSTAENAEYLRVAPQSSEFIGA

Question: What does the source list for `COc1cc2ncnc(Nc3cccc(Cl)c3F)c2cc1OCCON1CCN(C)CC1` [Compound 9, N-(3-Chloro-2-fluorophenyl)-7-methoxy-6-(2-((4-methylpiperazin-1-yl)oxy)ethoxy)quinazolin-4-amine]?
Answer: Kd [1]: < 0.2 nM; Kd [2]: < 0.2 nM; IC50 [3]: 3.1 nM; solubility at 2 h ([4]; pH 1.2): > 300 µM; solubility at 2 h ([4]; pH 6.8): 262 µM (≈ 121 µg/mL); solubility kinetic at 2 h ([4]; pH 7.4, aqueous buffer, read-out: Aq. Sol.): 199 µM (≈ 91.9 µg/mL); Remaining Percentage ([5]; +Cofactors, 15 min): 69.65%; Remaining Percentage ([5]; +Cofactors, 30 min): 46.26%; Remaining Percentage ([5]; +Cofactors, 45 min): 31.49%; Remaining Percentage ([5]; +Cofactors, 60 min): 26.65%; Remaining Percentage ([5]; -Cofactors, 60 min): 109.86%; half-life at 1 h, 1 µM ([5]; human, liver microsomes, read-out: LM t1/2): 30 min; microsomal CLint at 1 h, 1 µM ([5]; human, liver microsomes, read-out: LMClint): 46 µL/min/mg; Remaining Percentages ([6]; 15 min): 98.94%; Remaining Percentages ([6]; 30 min): 89.67%; Remaining Percentages ([6]; 60 min): 75.36%; Remaining Percentages ([6]; 90 min): 58.28%; Remaining Percentages ([6]; 120 min): 52.37%; hepatocyte CLint at 2 h, 1 µM ([6]; human, hepatocytes): 12 µL/min/1e6 cells; half-life at 2 h, 1 µM ([6]; human, hepatocytes, read-out: HEP t1/2): 117 min; hepatocyte CLint at 2 h, 1 µM ([7]; Sprague-Dawley, rat, hepatocytes): 70 µL/min/1e6 cells; half-life at 2 h, 1 µM ([7]; Sprague-Dawley, rat, hepatocytes, read-out: HEP t1/2): 19.7 min; Remaining Percentages ([7]; 15 min): 47.58%; Remaining Percentages ([7]; 30 min): 28.51%; Remaining Percentages ([7]; 60 min): 11.71%; Remaining Percentages ([7]; 90 min): 4.98%; Remaining Percentages ([7]; 120 min): 2.53%; Remaining Percentages ([8]; human plasma, 15 min): 93.43%; Remaining Percentages ([8]; human plasma, 30 min): 92.26%; Remaining Percentages ([8]; human plasma, 60 min): 97.47%; Remaining Percentages ([8]; human plasma, 120 min): 92.38%; t1/2 ([8]; human plasma, ∞ = no degradation): ∞; remaining at 5 μM ([8]; human, plasma): > 90%; remaining at 5 μM ([9]; Sprague-Dawley, rat, plasma): > 90%; Remaining Percentages ([9]; rat plasma, 15 min): 96.53%; Remaining Percentages ([9]; rat plasma, 30 min): 95.56%; Remaining Percentages ([9]; rat plasma, 60 min): 99.37%; Remaining Percentages ([9]; rat plasma, 120 min): 96.60%; t1/2 ([9]; rat plasma, ∞ = no degradation): ∞; efflux ratio at 2 h, 5 µM ([10]; Caco-2): 1.3; efflux ratio at 2 h, 5 μM ([10]; Caco-2): 1.32; recovery at 2 h, 5 μM ([10]; read-out: Recovery% (AP-BL)): 53.9%; recovery at 2 h, 5 μM ([10]; read-out: Recovery% (BL-AP)): 73.5%; Papp A→B at 2 h, 5 µM ([10]; Caco-2, 5 μM, 2 h): 6.5 ×10⁻⁶ cm/s; Papp A→B at 2 h, 5 μM ([10]; Caco-2, 5 μM, 2 h): 6.52 ×10⁻⁶ cm/s; Papp B→A at 2 h, 5 µM ([10]; Caco-2, 5 μM, 2 h): 8.6 ×10⁻⁶ cm/s; Papp B→A at 2 h, 5 μM ([10]; Caco-2, 5 μM, 2 h): 8.61 ×10⁻⁶ cm/s; recovery at 2 h, 1 μM ([11]; read-out: Recovery% (AP-BL)): 68.6%; recovery at 2 h, 1 μM ([11]; read-out: Recovery% (BL-AP)): 90%; efflux ratio at 2 h, 1 µM [12]: 0.9; efflux ratio at 2 h, 1 μM [12]: 0.92; Papp A→B at 2 h, 1 µM ([12]; 1 μM, 2 h): 9.8 ×10⁻⁶ cm/s; Papp A→B at 2 h, 1 μM ([12]; 1 μM, 2 h): 9.82 ×10⁻⁶ cm/s; Papp B→A at 2 h, 1 µM ([12]; 1 μM, 2 h): 9.1 ×10⁻⁶ cm/s; Papp B→A at 2 h, 1 μM ([12]; 1 μM, 2 h): 9.06 ×10⁻⁶ cm/s; fraction unbound at 6 h, 5 μM ([13]; Sprague-Dawley, rat, plasma, 5 μM, read-out: fu,plasma% / %Unbound): 0.128; recovery at 6 h, 5 μM [13, 18]: 106%; remaining at 6 h, 5 μM [13, 18]: 99.6%; fraction unbound at 6 h, 5 μM ([13]; Sprague-Dawley, rat, rat plasma, read-out: %Bound (converted)): 0.128; recovery at 6 h, 5 μM ([13]; human, human plasma): 101%; remaining at 6 h, 5 μM ([13]; human, human plasma): 102%; fraction unbound at 6 h, 5 μM ([13]; human, human plasma, read-out: fu,plasma% / %Unbound (converted)): 0.0442; fraction unbound at 6 h, 5 µM ([13]; plasma, human, 5 μM, read-out: fu,plasma% / %Unbound): 0.044; fraction unbound at 6 h, 5 μM ([13]; plasma, human, 5 μM, read-out: fu,plasma% / %Unbound (converted)): 0.0442; fu,plasma% / %Unbound ([13]; rat, 5 μM): 12.75%; recovery at 6 h, 5 μM ([14]; Sprague-Dawley (SD), rat brain homogenate): 102%; fraction unbound at 6 h, 5 μM ([14]; Sprague-Dawley, brain homogenate, read-out: fu,brain% / %Unboundbrain): 0.0447; remaining at 6 h, 5 μM ([14]; Sprague-Dawley, rat brain homogenate): 94.7%; fraction unbound at 6 h, 5 μM ([14]; Sprague-Dawley, rat brain homogenate, read-out: %Boundbrain (converted)): 0.0447; fraction unbound at 6 h, 5 µM ([14]; brain homogenate, read-out: fu,brain% / %Unboundbrain): 0.045; %hERG inhibition ([15]; 1 μM): 17%; IC50 ([15]; human, HEK293 cells stably transfected with hERG, HEK 293 (+hERG), manual patch clamp): 6480 nM; Kd [16]: < 0.2 nM; IC50 [17]: 2 nM
